The subject of one assay is MHC class I. In words: MHC binding assay (UV-ligand exchange, ELISA). On the set-up: species or system human. The following applies: yield of UV-ligand exchange reaction. The source says: Candidate peptides for T cell based therapies according to the present invention were further tested for their MHC binding capacity (affinity). The individual peptide-MHC complexes were produced by UV-ligand exchange, where a UV-sensitive peptide is cleaved upon UV-irradiation, and exchanged with the peptide of interest as analyzed. Only peptide candidates that can effectively bind and stabilize the peptide-receptive MHC molecules prevent dissociation of the MHC complexes. To determine the yield of the exchange reaction, an ELISA was performed based on the detection of the light chain (62m) of stabilized MHC complexes. The assay was performed as generally described in Rodenko et al (Rodenko et al., 2006).
96 well MAXISorp plates (NUNC) were coated over night with 2 ug/ml streptavidin in PBS at room temperature, washed 4× and blocked for 1 h at 37° C. in 2% BSA containing blocking buffer. Refolded HLA-A*02:01/MLA-001 monomers served as standards, covering the range of 15-500 ng/ml. Peptide-MHC monomers of the UV-exchange reaction were diluted 100 fold in blocking buffer. Samples were incubated for 1h at 37° C., washed four times, incubated with 2 ug/ml HRP conjugated anti-62m for 1h at 37° C., washed again and detected with TMB solution that is stopped with […]. Absorption was measured at 450 nm. Candidate peptides that show a high exchange yield (preferably higher than 50%, most preferred higher than 75%) are generally preferred for a generation and production of antibodies or fragments thereof, and/or T cell receptors or fragments thereof, as they show sufficient avidity to the MHC molecules and prevent dissociation of the MHC complexes.

The test system of assay [1] is CD4+ T cells. The assay can be described thus: HLA class II T-cell proliferation assay (ProImmune, CFSE). The class given is cell-based, human. The conditions noted are these: for Number of positive donors: 21 donor samples, positive = over 0.02% stimulation above background; for Number of positive donors / Strength of response: mean in % above the background: 5 μM peptide, 7 days; for Strength of response: mean in % above the background: CD4+ T-cell proliferation (CFSE). The source says:
The experiments as follows summarize the results of T-cell Proliferation Assays of selected MHC class II TUMAPs. Nine of 10 tested peptide antigens tested positive for immunogenicity. […] Individual peptide antigens stimulated the CD4+ T-cell proliferation in up to 6 donors. […] Thus, it can be concluded that the newly tested peptides also have a high potential to induce T-cell responses in vaccine trials.
In order to characterize selected peptides for their potential especially as vaccine candidates, their in vitro immunogenicity was determined by analysis of T-cell proliferation using a commercial T-cell Proliferation Assay from the company ProImmune.
Healthy donor CD8-depleted blood cells samples were tested with the selected peptides. The peptides that induce the proliferation of CD4+ T cells can potentially result in the development of a helper T-cell immune response, and therefore are considered to be immunogenic. The proliferation of CD4+ T cells was determined using carboxyfluorescein succinimidyl ester (CFSE) labelling. In proliferating cells, CFSE is distributed evenly to dividing cells. Thus, the proliferation can be measured as a decrease in CFSE fluorescence in the cells as analyzed.
Peripheral blood mononuclear cell (PBMC) samples from healthy human donors were selected from the ProImmune cell bank based on HLA-DRB1 allele expression. CD8^+ T-cells were depleted from donor blood samples prior to use to avoid a false-positive response. The remaining CD4^+ T cells were labelled with CFSE and subsequently incubated with 5 μM of each selected peptide. Each peptide was tested in six replicated wells. The background was measured on each plate in six unstimulated control wells.
After an incubation period of 7 days the cells were co-stained with anti-CD4 antibody and analyzed by flow cytometry. The degree of proliferation was determined by measuring a reduction in CFSE intensity.
The evaluation of flow cytometric data was performed using FlowJo Software (Tree Star, Inc.). The results of flow cytometric analysis were expressed as the ratio of the CD4^+ dim population to the total CD4^+ population. The degree of proliferation was expressed as percentage of stimulation above background, i.e. proportion of antigen stimulated CD4^+ CFSE dim cells minus the proportion of CD4^+ CFSE dim cells from unstimulated control wells. For each sample, a mean and the corresponding standard error of the mean (SEM) of the six replicates were calculated.
Donors were chosen by HLA-DRB1 allele expression. The other two HLA class II loci (DQ and DP) have not been included into the analysis. The interesting DRB1 alleles were selected according to the frequencies of predicted peptide binding based on […] algorithm (Rammensee et al., 1999). For HLA-DR, binding was defined by a […] binding prediction score equal or greater than 18. This threshold score for binding was defined based on the analysis of binding scores of known published promiscuous HLA-DR ligands (Table 24).
All DRB1 alleles with binding frequency over 20% over all selected peptides were requested to be included into the donor panel) by ProImmune. 4 other rare DRB1 alleles (DRB1*10:01, DRB1*16:01, DRB1*08:01, and DRB1*13:03) were requested additionally.
The antigen-stimulated proliferation of CD4^+ T cells was considered as an indicator of in vitro immunogenicity and was investigated in a commercially available T-cell Proliferation Assay from ProImmune. The degree of antigen-stimulated CD4^+ T-cell proliferation was expressed as a percentage of stimulation above background. A response over 0.02% stimulation above background with SEM=2 (i.e. values two standard errors greater than background) was considered to be positive.

In a further assay the test system is CD4 T cells. The assay can be described thus: In vivo immunogenicity in vaccinated patients, intracellular cytokine staining (ICS) of CD4 T cells. On the set-up: species or system human. The conditions noted are these: IMA950 peptides, 16 patients, study IMA950-101. The protocol: The T-cell proliferation analysis included 5 peptides with known in vivo immunogenicity as positive controls. The in vivo immunogenicity of these peptides was determined in blood samples of patients vaccinated with these peptides in clinical trials using intracellular cytokine staining (ICS) of CD4 T cells.
In principle, ICS assays analyze the quality of specific T cells in terms of effector functions. Therefore the peripheral mononuclear cells (PBMCs) were re-stimulated in vitro with the peptide of interest, a reference peptide and a negative control (here MOCK). Following the re-stimulated cells were stained for IFN-gamma, TNF-alpha, IL-2 and IL-10 production, as well as expression of the co-stimulatory molecule CD154. The counting of stained cells was performed on a flow cytometer (FIG. 5).

The subject of assay [2] is CD4+ T cells. The following applies: 19 evaluable patients, prostate cancer-specific peptide vaccine (Feyerabend 2009; Widenmeyer 2008); cited from earlier work.

On to “31 (SYLDKVRAL; listed as Homo sapiens) [compound 31]”, for which the “Peptide exchange (MHC class I binding score)” value (“Peptide exchange” below) with MHC class I is given as “+++ (50%-75% = +++)”.
The same measure, in the same setting: in the case of “51 (NYLLESPHRF; listed as Homo sapiens) [compound 51]” it was “+++ (50%-75% = +++)”.
Still for that read-out and setting: in the case of “55 (IYPVKYTQTF; listed as Homo sapiens) [compound 55]” it was “+++ (50%-75% = +++)”; in that of “45 (KFLESKGYEF; listed as Homo sapiens) [compound 45]”, “+++ (50%-75% = +++)”.
With “MET-005: IMA950 class II peptide, positive control with known in vivo immunogenicity (TFSYVDPVITSISPKYG; listed as Homo sapiens) [reference compound]”, in the assay on CD4+ T cells [1], the “Number of positive donors” value was determined as 4 and the “Strength of response: mean in % above the background” value was 0.31%. Moreover, the “immune response by vaccination (ICS)” value in the assay on CD4 T cells stood at 100%.
With “BIR-002: IMA950 class II peptide, positive control with known in vivo immunogenicity (TLGEFLKLDRERAKN; listed as Homo sapiens) [reference compound]”, in the assay on CD4+ T cells [1], the “Number of positive donors” value was 3 and the “Strength of response: mean in % above the background” value is 0.24%. The “strength of stimulation response on average, above the background” value with CD4+ T cells [1] (CD4+ CFSE dim cells minus unstimulated control) stood at 0.24%. Besides, in the assay on CD4+ T cells [2], the “patients mounting a strong CD4+ T-cell response” value was 84%. Moreover, the “immune response by vaccination (ICS)” value in the assay with CD4 T cells is recorded as 100%.
For “60 (SYPAKLSFI; listed as Homo sapiens) [compound 60]”, the “Peptide exchange” value with MHC class I is recorded as “+++ (50%-75% = +++)”.
Take “80 (AYLKEVEQL; listed as Homo sapiens) [compound 80]”: the “Peptide exchange” value with MHC class I is “+++ (50%-75% = +++)”.

The values above are taken from US10526389B2, “Peptides and combinations of peptides for use in immunotherapy against lung cancer, including NSCLC and other cancers” (Immatics Biotechnologies GmbH, priority 2015, dated 2020).
